Here are results for 17 molecules from paper PMC10221708, “Synthesis and Antimalarial Evaluation of Halogenated Analogues of Thiaplakortone A” (Marine Drugs, 2023).

Data set [1] relates to Plasmodium falciparum 3D7. Kind of data set: In vitro antimalarial image-based asexual assay, 3D7. Format: cell-based. The settings on record: for IC50: Plasmodium falciparum, 3D7, chloroquine-sensitive strain, 72 h, n = 4, read-out: Pf 3D7 IC50 ± SD; for SI for 3D7: SI = HEK293 IC50/parasite IC50. Here is the method: (§1) Plasmodium falciparum 3D7 and Dd2 parasites were cultured in RPMI1640 (Life Technologies, Camarillo, CA, USA) supplemented with 2.5 mg/mL Albumax II, 5% AB human serum, 25 mM HEPES and 0.37 mM hypoxanthine. Ring-stage parasites were treated with compounds following two rounds of sorbitol synchronisation as previously described. Artesunate, pyrimethamine and puromycin were incorporated as controls. Following incubation of assay plates for 72 h at 37 °C, and 5% CO2 and 5% O2, parasites were stained with 2-(4-amidinophenyl)-1H-indole-6-carboxamidine (DAPI) and imaged using an Opera QEHS confocal imaging system (PerkinElmer, Waltham, MA, USA). Images were analysed as previously described using Acapella spot detection software (PerkinElmer, Waltham, MA, USA).

For data set [2], the system named is Plasmodium falciparum Dd2. Kind of data set: In vitro antimalarial image-based asexual assay, Dd2. Format: cell-based. The following applies: for IC50: Plasmodium falciparum, DD2, 72 h, n = 4, read-out: Pf Dd2 IC50 ± SD; for SI for Dd2: SI = HEK293 IC50/parasite IC50. The protocol:
as §1

The test system of data set [3] is HEK293 cells. Kind of data set: In vitro cytotoxicity assay (Alamar Blue). In kind it is cell-based, human. The settings on record: for IC50: HEK293, 72 h, n = 2. The protocol: Human embryonic kidney cells (HEK293) were maintained in DMEM (Life Technologies, Camarillo, CA, USA) containing 10% FBS (Hyclone™ ThermoFisher, Melbourne, Australia). Cytotoxicity testing was undertaken as previously described. In brief, 5 μL of test compound was added/well of black/clear tissue culture treated 384-well plates containing 3000 adherent HEK293 cells/well in 45 μL and incubated 72 h at 37 °C in 5% CO2. After incubation, the supernatant was removed and replaced with 40 μL of 10% Alamar Blue per well. Plates were incubated for 5–6 h and measured for fluorescence at 530 nm excitation and 595 nm emission. The % inhibition was calculated using 0.4% DMSO (no inhibition) and 5 μM puromycin (100% inhibition) data. IC50 values were obtained by plotting % inhibition against log dose using GraphPad Prism v.6 (San Diego, CA, USA), nonlinear regression with a variable slope plot.

The test system of data set [4] is Plasmodium falciparum 3D7. Set-up: method as in PMID 24032556. The following applies: cited from earlier work; for IC50: drug-sensitive strain, read-out: IC50 Pf (3D7).
Data set [5] has as its system Plasmodium falciparum Dd2. Set-up: method as in PMID 24032556. The settings on record: cited from earlier work; for IC50: drug-resistant strain, read-out: IC50 Pf (Dd2).
The test system of data set [6] is HEK293 cells. Set-up: method as in PMID 24032556. The following applies: cited from earlier work.
Setting [7] is: controls, drug-resistant strain.
[8] abbreviates: Homo sapiens, controls, read-out: HEK293 IC50 ± SD.
[9] abbreviates: chloroquine, pyrimethamine and mefloquine drug-resistant strain, mean ± SD.
Setting [10] is: human embryonic kidney cells, mean ± SD.
Setting [11] is: N-Boc group of compound 7 removed.
Setting [12] is: bromine at C-2 replaced with iodine.

“Also recorded” adds a separate entry of the source. Read-outs that look alike come from different tables or passages of the source.

As for `C[C@H]1[C@H](OC(=O)CCC(=O)O)O[C@@H]2O[C@@]3(C)CC[C@H]4[C@H](C)CC[C@@H]1[C@@]24OO3` [Artesunate, reference compound], the values for the IC50 (in data set [1] (controls); in data set [2] (setting [7]); in the data set with HEK293 cells [3] (setting [8])) were 0.49 ± 0.2 nM, 0.38 ± 0.01 nM and above 4000 nM, respectively. Moreover, in data set [1], the “SI for 3D7” value is above 8163. Further, in data set [2], the “SI for Dd2” value is reported as >10,526.
In the case of `NCCc1c[nH]c2c1C(=O)C1=C(NC=CS1(=O)=O)C2=O` [Compound 1, thiaplakortone A], the IC50 is 61 ± 9 nM in data set [1] (mean ± SD); 8 ± 1 nM in data set [2] (setting [9]); 1320 ± 92 nM in the data set on HEK293 cells [3] (setting [10]); 51 nM in data set [4]; 6.6 nM in data set [5]. For the same molecule, the “SI for 3D7” value in data set [1] came to 22. Besides, the “SI for Dd2” value in data set [2] is recorded as 150. The “selectivity index against 3D7” value in data set [4] (HEK293 vs 3D7) is 76. For the same molecule, the “selectivity index against Dd2” value in data set [5] (HEK293 vs Dd2) is given as 591. For the same molecule, in the data set with HEK293 cells [6], the “cytotoxicity against HEK293 cells” value is “low cytotoxicity”.
In the case of `CC(C)(C)OC(=O)NCCc1c[nH]c2c1C(=O)C1=C(NC=CS1(=O)=O)C2=O` [Compound 2, Boc-protected thiaplakortone A], the IC50 in data set [1] (mean ± SD) came out at 227 ± 44 nM; in data set [2] (setting [9]), 86 ± 12 nM; in the data set with HEK293 cells [3] (setting [10]) it was 5530 ± 21 nM. For the same molecule, the “SI for 3D7” value in data set [1] amounted to 24. Moreover, the “SI for Dd2” value in data set [2] is on record as 64.
`CC(C)(C)OC(=O)NCCc1c[nH]c2c1C(=O)C1=C(NC=C(Br)S1(=O)=O)C2=O` [Compound 3]: the IC50 in data set [1] (mean ± SD) is 3520 ± 350 nM; in data set [2] (setting [9]), 583 ± 94 nM; in the data set with HEK293 cells [3] (setting [10]), above 80000 nM. Also, in data set [1], the “SI for 3D7” value is above 23. The “SI for Dd2” value in data set [2] is given as above 137.
In the case of `CC(C)(C)OC(=O)NCCc1c(Br)[nH]c2c1C(=O)C1=C(NC=C(Br)S1(=O)=O)C2=O` [Compound 4], the IC50 in data set [1] (mean ± SD) was 1370 ± 117 nM; in data set [2] (setting [9]) it was 2060 ± 192 nM; with HEK293 cells [3] (setting [10]) it was above 80000 nM. In addition, the “SI for 3D7” value in data set [1] is on record as above 58. The “fold decrease in antimalarial activity against 3D7 upon removal of the Boc group” value in data set [1] (compound 4 after Boc removal) came out at 1.2 fold. Moreover, in data set [2], the “SI for Dd2” value is above 39.
For `NCCc1c[nH]c2c1C(=O)C1=C(NC=C(Br)S1(=O)=O)C2=O` [Compound 5], the IC50 in data set [1] (mean ± SD) was 559 ± 145 nM; in data set [2] (setting [9]) it was 58 ± 16 nM; with HEK293 cells [3] (setting [10]) it was above 80000 nM. Moreover, the “SI for 3D7” value in data set [1] is given as above 143. For the same molecule, in data set [2], the “SI for Dd2” value is recorded as above 1379. Moreover, the “cytotoxicity against HEK293 cells observed at 80 μM” value with HEK293 cells [3] (80 μM (top screening concentration)) is given as “minimal cytotoxicity; also recorded: minimal toxicity”.
`NCCc1c(Br)[nH]c2c1C(=O)C1=C(NC=C(Br)S1(=O)=O)C2=O` [Compound 6]: the IC50 in data set [1] (mean ± SD) is 1650 ± 194 nM; in data set [2] (setting [9]), 487 ± 98 nM; in the data set with HEK293 cells [3] (setting [10]), above 80000 nM. Moreover, in data set [1], the “SI for 3D7” value is on record as above 48. For the same molecule, in data set [2], the “SI for Dd2” value is above 164.
The corresponding values for `CC(C)(C)OC(=O)NCCc1c[nH]c2c1C(=O)C1=C(NC=C(I)S1(=O)=O)C2=O` [Compound 7] are 5620 ± 383 nM, 1190 ± 270 nM, above 80000 nM, above 14 and above 67.
For `CC(C)(C)OC(=O)NCCc1c(I)[nH]c2c1C(=O)C1=C(NC=C(I)S1(=O)=O)C2=O` [Compound 8], the IC50 in data set [1] (mean ± SD) is 1620 ± 154 nM; in data set [2] (setting [9]) it was 659 ± 119 nM; in the data set on HEK293 cells [3] (setting [10]) it was above 80000 nM. In data set [1], the “SI for 3D7” value is recorded as above 49. Besides, in data set [2], the “SI for Dd2” value is on record as above 121.
For the molecule `NCCc1c[nH]c2c1C(=O)C1=C(NC=C(I)S1(=O)=O)C2=O` [Compound 9], in data set [1] (setting [11]), the “fold increase of antimalarial activity against 3D7 versus compound 7” value is 2.5 fold. For the same molecule, the IC50 in data set [1] (mean ± SD) was 2220 ± 248 nM; in data set [2] (setting [9]), 317 ± 8 nM; in the data set on HEK293 cells [3] (setting [10]) it was above 80000 nM. Besides, the “SI for 3D7” value in data set [1] is given as above 36. In addition, the “fold reduction of antimalarial activity against 3D7 versus compound 5” value in data set [1] (setting [12]) was 3.9 fold. The “fold increase of antimalarial activity against Dd2 versus compound 7” value in data set [2] (setting [11]) was determined as 3.7 fold. Further, in data set [2], the “SI for Dd2” value is above 252. Moreover, the “fold reduction of antimalarial activity against Dd2 versus compound 5” value in data set [2] (setting [12]) amounted to 5.5 fold.
Turning to `NCCc1c(I)[nH]c2c1C(=O)C1=C(NC=C(I)S1(=O)=O)C2=O` [Compound 10], the IC50 is 1680 ± 316 nM in data set [1] (mean ± SD), 725 ± 244 nM in data set [2] (setting [9]) and above 80000 nM in the data set with HEK293 cells [3] (setting [10]). Also, in data set [1], the “SI for 3D7” value is reported as above 47. For the same molecule, in data set [2], the “SI for Dd2” value is above 110.
The matching figures for `NCCc1c(C(F)(F)F)[nH]c2c1C(=O)C1=C(NC=C(C(F)(F)F)S1(=O)=O)C2=O` [Compound 11]: 6800 ± 2440 nM, 4550 ± 1150 nM, above 80000 nM, above 12 and above 18.
For the molecule `COc1ccc(C[C@H](N)C(=O)N[C@H]2[C@@H](O)[C@H](n3cnc4c(N(C)C)ncnc43)O[C@@H]2CO)cc1` [Puromycin, reference compound], the 50% inhibitory concentration (IC50) in data set [1] (controls) is 31.9 ± 16.2 nM; in data set [2] (setting [7]), 17 ± 3.96 nM; in the data set with HEK293 cells [3] (setting [8]) it was 1040 ± 66 nM. Also, in data set [1], the “SI for 3D7” value was found to be 33. In addition, the “SI for Dd2” value in data set [2] was found to be 61.
With `CCc1nc(N)nc(N)c1-c1ccc(Cl)cc1` [Pyrimethamine, reference compound], the IC50 in data set [1] (controls) was 3.75 ± 0.3 nM; in data set [2] (setting [7]), above 40000 nM; with HEK293 cells [3] (setting [8]) it was above 40000 nM. Moreover, in data set [1], the “SI for 3D7” value is reported as >10,666.
For `NCCc1c[nH]c2c1C(=O)C1=C(NCCS1(=O)=O)C2=O` [Thiaplakortone B], the IC50 in data set [4] was 650 nM; in data set [5], 92 nM.
As for `CN[C@@H](Cc1c[nH]c2c1C(=O)C1=C(NC=CS1(=O)=O)C2=O)C(=O)O` [Thiaplakortone C], the values for the IC50 in data set [4] and in data set [5] were 310 nM and 170 nM, respectively.
For `CN[C@@H](Cc1c[nH]c2c1C(=O)C1=C(C2=O)S(=O)(=O)C=CN1)C(=O)O` [Thiaplakortone D], the IC50 in data set [4] was 280 nM; in data set [5] it was 160 nM.
